In patent publication US20160368879A1, “PHOTOACID GENERATOR, AND RESIN COMPOSITION FOR PHOTOLITHOGRAPHY” (SAN-APRO LTD., priority 2013, published 2016):

How the values were obtained:
Assay type in all cases: physicochemical
[1] = Molar extinction coefficient of i-line (365 nm), UV-visible absorbance in acetonitrile; conditions: 0.25 mmol/L in acetonitrile, cell length 1 cm
Procedure: The synthesized photoacid generator was diluted to 0.25 mmol/L with acetonitrile, and using an ultraviolet-visible spectrophotometer (UV-2550 available from SHIMADZU CORPORATION), the absorbance in a range of 200 nm to 500 nm was measured with a cell having an optical path length (a cell length) of 1 cm. The molar extinction coefficient of i-line (365 nm) (ε365) was calculated from the following equation.
[In the equation, […] represents the absorbance at 365 nm.]

[2] = Solvent solubility (butyl acetate, toluene or PGMEA); conditions: 25° C.
Procedure: In a test tube, 0.1 g of the synthesized photoacid generator was placed, and an organic solvent (butyl acetate, toluene or PGMEA) was added thereto in 0.2 g portions under a condition where the temperature was adjusted to 25° C. until the photoacid generator was completely dissolved. In this connection, in the case where the photoacid generator was not completely dissolved even when 20 g of the solvent was added, the photoacid generator was evaluated as one that was not dissolved.

[3] = Thermal decomposition temperature (TG/DTA, 2% weight reduction); conditions: point of 2% weight reduction; 10° C./minute from 30° C. to 500° C.; nitrogen atmosphere
Procedure: The synthesized photoacid generator was measured for the change in weight under a temperature increasing condition of 10° C./minute from 30° C. to 500° C. under a nitrogen atmosphere using a thermal gravimetric/differential thermal analyzer (TG/DTA 6200, available from Seiko Instruments Inc.), and a point where the weight was reduced by 2% was defined as the thermal decomposition temperature.

O=C1c2cccc3c(C(F)(F)C(F)(F)C(F)(F)C(F)(F)C(F)(F)C(F)(F)C(F)(F)C(F)(F)F)ccc(c23)C(=O)N1OS(=O)(=O)C(F)(F)F [Example A-17, 4-(heptadecafluoro-n-octyl)-1,8-naphthalimide trifluoromethanesulfonate]
Molar extinction coefficient [1]: 80 L/mol/cm
Solvent solubility PGMEA [2]: >30 wt %
Solvent solubility Butyl acetate [2]: >30 wt %
Solvent solubility Toluene [2]: >30 wt %
Thermal decomposition temperature [3]: 242 °C

CCCCC(CC)C(=O)Oc1cc2c3c(cccc3c1)C(=O)N(OS(=O)(=O)c1c(F)c(F)c(F)c(F)c1F)C2=O (stereo not shown) [Example A-29, 3-(2-ethylhexanoyloxy)-1,8-naphthalimide pentafluorobenzenesulfonate]
Molar extinction coefficient [1]: 1500 L/mol/cm
Solvent solubility PGMEA [2]: 18 wt %
Solvent solubility Butyl acetate [2]: 25 wt %
Solvent solubility Toluene [2]: 23 wt %
Thermal decomposition temperature [3]: 230 °C

CC1(C)C2CC[C@@]1(CS(=O)(=O)ON1C(=O)c3cccc4cc(OC(=O)c5ccccc5)cc(c34)C1=O)C(=O)C2 [Example A-51, 3-benzoyloxy-1,8-naphthalimide-(+)-10-camphorsulfonate]
Molar extinction coefficient [1]: 1400 L/mol/cm
Solvent solubility PGMEA [2]: 5 wt %
Solvent solubility Butyl acetate [2]: 6 wt %
Solvent solubility Toluene [2]: 6 wt %
Thermal decomposition temperature [3]: 245 °C

CC1(C)C2CCC1(CS(=O)(=O)ON1C(=O)c3cccc4c(OCC(F)(F)C(F)F)ccc(c34)C1=O)C(=O)C2 (stereo not drawn) [Example A-43, 4-(2,2,3,3-tetrafluoro-1-propoxy)-1,8-naphthalimide-(+)-10-camphorsulfonate]
Molar extinction coefficient [1]: 12000 L/mol/cm
Solvent solubility PGMEA [2]: 3 wt %
Solvent solubility Butyl acetate [2]: 3 wt %
Solvent solubility Toluene [2]: 3.5 wt %
Thermal decomposition temperature [3]: 231 °C

O=C1c2cccc3c(C(F)(F)C(F)(F)C(F)(F)C(F)(F)C(F)(F)C(F)(F)C(F)(F)C(F)(F)F)ccc(c23)C(=O)N1OS(=O)(=O)c1c(F)c(F)c(F)c(F)c1F [Example A-37, 4-(heptadecafluoro-n-octyl)-1,8-naphthalimide pentafluorobenzenesulfonate]
Molar extinction coefficient [1]: 80 L/mol/cm
Solvent solubility PGMEA [2]: 23 wt %
Solvent solubility Butyl acetate [2]: 25 wt %
Solvent solubility Toluene [2]: 28 wt %
Thermal decomposition temperature [3]: 244 °C

CC1(C)C2CCC1(CS(=O)(=O)ON1C(=O)c3cccc4c(Oc5c(F)c(F)c(F)c(F)c5F)ccc(c34)C1=O)C(=O)C2 (stereo not drawn) [Example A-45, 4-pentafluorophenoxy-1,8-naphthalimide-(+)-10-camphorsulfonate]
Molar extinction coefficient [1]: 12000 L/mol/cm
Solvent solubility PGMEA [2]: 3.5 wt %
Solvent solubility Butyl acetate [2]: 4 wt %
Solvent solubility Toluene [2]: 4 wt %
Thermal decomposition temperature [3]: 245 °C

O=C1c2cccc3c(OCC(F)(F)C(F)F)ccc(c23)C(=O)N1OS(=O)(=O)c1c(F)c(F)c(F)c(F)c1F [Example A-23, 4-(2,2,3,3-tetrafluoro-1-propoxy)-1,8-naphthalimide pentafluorobenzenesulfonate]
Molar extinction coefficient [1]: 12000 L/mol/cm
Solvent solubility PGMEA [2]: 7 wt %
Solvent solubility Butyl acetate [2]: 7.5 wt %
Solvent solubility Toluene [2]: 10 wt %
Thermal decomposition temperature [3]: 232 °C

CC(C)(C)Cc1cc2c3c(cc(CC(C)(C)C)cc3c1)C(=O)N(OS(=O)(=O)CC13CCC(CC1=O)C3(C)C)C2=O (stereo not drawn) [Example A-54, 3,6-dineopentyl-1,8-naphthalimide-(+)-10-camphorsulfonate]
Molar extinction coefficient [1]: 6200 L/mol/cm
Solvent solubility PGMEA [2]: 3.5 wt %
Solvent solubility Butyl acetate [2]: 4.5 wt %
Solvent solubility Toluene [2]: 2.5 wt %
Thermal decomposition temperature [3]: 252 °C

CC(C)Oc1ccc2c3c(cccc13)C(=O)N(OS(=O)(=O)c1c(F)c(F)c(F)c(F)c1F)C2=O [Example A-21, 4-isopropoxy-1,8-naphthalimide pentafluorobenzenesulfonate]
Molar extinction coefficient [1]: 16300 L/mol/cm
Solvent solubility PGMEA [2]: 4.5 wt %
Solvent solubility Butyl acetate [2]: 4 wt %
Solvent solubility Toluene [2]: 3.5 wt %
Thermal decomposition temperature [3]: 236 °C

O=C(Oc1cc2c3c(cccc3c1)C(=O)N(OS(=O)(=O)c1c(F)c(F)c(F)c(F)c1F)C2=O)c1c(F)c(F)c(F)c(F)c1F [Example A-32, 3-pentafluorobenzoyloxy-1,8-naphthalimide pentafluorobenzenesulfonate]
Molar extinction coefficient [1]: 1300 L/mol/cm
Solvent solubility PGMEA [2]: 19 wt %
Solvent solubility Butyl acetate [2]: 24 wt %
Solvent solubility Toluene [2]: 22 wt %
Thermal decomposition temperature [3]: 244 °C

O=C1c2cc(C34CC5CC(CC(C5)C3)C4)cc3cc(C45CC6CC(CC(C6)C4)C5)cc(c23)C(=O)N1OS(=O)(=O)C(F)(F)F [Example A-15, 3,6-diadamantyl-1,8-naphthalimide trifluoromethanesulfonate]
Molar extinction coefficient [1]: 6000 L/mol/cm
Solvent solubility PGMEA [2]: 7 wt %
Solvent solubility Butyl acetate [2]: 7.5 wt %
Solvent solubility Toluene [2]: 8.5 wt %
Thermal decomposition temperature [3]: 250 °C

O=C1c2cccc3c(Oc4cccc(C(F)(F)F)c4)ccc(c23)C(=O)N1OS(=O)(=O)C(F)(F)F [Example A-6, 4-(3-trifluoromethylphenoxy)-1,8-naphthalimide trifluoromethanesulfonate]
Molar extinction coefficient [1]: 16000 L/mol/cm
Solvent solubility PGMEA [2]: 11 wt %
Solvent solubility Butyl acetate [2]: 14 wt %
Solvent solubility Toluene [2]: 13 wt %
Thermal decomposition temperature [3]: 239 °C

CCCC(=O)Oc1cc2c3c(cccc3c1)C(=O)N(OS(=O)(=O)c1c(F)c(F)c(F)c(F)c1F)C2=O [Example A-30, 3-butyroyloxy-1,8-naphthalimide pentafluorobenzenesulfonate]
Molar extinction coefficient [1]: 1600 L/mol/cm
Solvent solubility PGMEA [2]: 14 wt %
Solvent solubility Butyl acetate [2]: 18 wt %
Solvent solubility Toluene [2]: 20 wt %
Thermal decomposition temperature [3]: 235 °C

CC(C)Oc1ccc2c3c(cccc13)C(=O)N(OS(=O)(=O)C(F)(F)F)C2=O [Example A-1, 4-isopropoxy-1,8-naphthalimide trifluoromethanesulfonate]
Molar extinction coefficient [1]: 16300 L/mol/cm
Solvent solubility PGMEA [2]: 6.5 wt %
Solvent solubility Butyl acetate [2]: 8.5 wt %
Solvent solubility Toluene [2]: 9 wt %
Thermal decomposition temperature [3]: 234 °C

COc1cc2c3c(cccc3c1)C(=O)N(OS(=O)(=O)C(F)(F)F)C2=O [Example A-8, 3-methoxy-1,8-naphthalimide trifluoromethanesulfonate]
Molar extinction coefficient [1]: 7500 L/mol/cm
Solvent solubility PGMEA [2]: 6 wt %
Solvent solubility Butyl acetate [2]: 8 wt %
Solvent solubility Toluene [2]: 7.5 wt %
Thermal decomposition temperature [3]: 243 °C

CCCOc1ccc2c3c(cccc13)C(=O)N(OS(=O)(=O)CC13CCC(CC1=O)C3(C)C)C2=O (stereo not drawn) [Example A-42, 4-n-propoxy-1,8-naphthalimide-(+)-10-camphorsulfonate]
Molar extinction coefficient [1]: 14000 L/mol/cm
Solvent solubility PGMEA [2]: 1.2 wt %
Solvent solubility Butyl acetate [2]: 1.5 wt %
Solvent solubility Toluene [2]: 2 wt %
Thermal decomposition temperature [3]: 245 °C

O=C(Cc1ccccc1)c1ccc2c3c(cccc13)C(=O)N(OS(=O)(=O)C(F)(F)F)C2=O [Example A-4, 4-phenylacetyl-1,8-naphthalimide trifluoromethanesulfonate]
Molar extinction coefficient [1]: 3000 L/mol/cm
Solvent solubility PGMEA [2]: 4 wt %
Solvent solubility Butyl acetate [2]: 4.5 wt %
Solvent solubility Toluene [2]: 7 wt %
Thermal decomposition temperature [3]: 240 °C

O=C1c2cccc3c(Cl)ccc(c23)C(=O)N1OS(=O)(=O)C(F)(F)F [Example A-19, 4-chloro-1,8-naphthalimide trifluoromethanesulfonate]
Molar extinction coefficient [1]: 6000 L/mol/cm
Solvent solubility PGMEA [2]: 6 wt %
Solvent solubility Butyl acetate [2]: 5 wt %
Solvent solubility Toluene [2]: 10 wt %
Thermal decomposition temperature [3]: 220 °C

CC1(C)C2CCC1(CS(=O)(=O)ON1C(=O)c3cccc4c(Oc5cccc(C(F)(F)F)c5)ccc(c34)C1=O)C(=O)C2 (stereo not drawn) [Example A-46, 4-(3-trifluoromethylphenoxy)-1,8-naphthalimide-(+)-10-camphorsulfonate]
Molar extinction coefficient [1]: 16000 L/mol/cm
Solvent solubility PGMEA [2]: 2.8 wt %
Solvent solubility Butyl acetate [2]: 3.5 wt %
Solvent solubility Toluene [2]: 3.3 wt %
Thermal decomposition temperature [3]: 243 °C

O=C1c2cccc3c(Oc4c(F)c(F)c(F)c(F)c4F)ccc(c23)C(=O)N1OS(=O)(=O)c1c(F)c(F)c(F)c(F)c1F [Example A-25, 4-pentafluorophenoxy-1,8-naphthalimide pentafluorobenzenesulfonate]
Molar extinction coefficient [1]: 12000 L/mol/cm
Solvent solubility PGMEA [2]: 11 wt %
Solvent solubility Butyl acetate [2]: 14 wt %
Solvent solubility Toluene [2]: 13 wt %
Thermal decomposition temperature [3]: 247 °C
